Like-named read-outs stand apart in the source and are kept apart here.
Key:
[1] = system: thymidine kinase deficient human adenocarcinoma line (GC3 /M TK^-); assay: cells; assay type: cell-based; conditions: GC3/MTK-, 120 h, read-out: IC50 GC3-M
[2] = system: L1210 murine leukemia (ATCC CCL 219); assay: cells; assay type: cell-based; conditions: Mus musculus, L1210, 72 h, read-out: IC50 L1210
Candida TS ("CTS") = Candida TS ("CTS") (Candida albicans, UniProt P12461); assay: Thymidylate synthase inhibition constant Ki, Candida TS; assay type: biochemical
Candida TS ("CTS"), sequence (P12461 whole entry): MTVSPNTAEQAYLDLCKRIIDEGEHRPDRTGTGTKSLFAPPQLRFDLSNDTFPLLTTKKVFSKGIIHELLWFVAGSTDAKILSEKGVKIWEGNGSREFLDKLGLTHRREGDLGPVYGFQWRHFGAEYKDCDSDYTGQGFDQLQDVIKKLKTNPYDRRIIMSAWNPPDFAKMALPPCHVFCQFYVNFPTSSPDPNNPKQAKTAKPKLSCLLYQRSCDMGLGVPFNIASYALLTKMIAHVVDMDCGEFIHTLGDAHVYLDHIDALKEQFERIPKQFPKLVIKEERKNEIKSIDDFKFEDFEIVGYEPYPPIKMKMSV
Method: (§1) Thymidylate synthase inhibition constants Ki were determined by the following method. All assays were run at 25° C. and initiated by the addition of three different types of thymidylate synthase ("TS"): (1) Escherichia Coli TS ("ETS"); (2) Candida TS ("CTS"), a fungus; and (3) human TS ("HTS").
(§2) All reaction mixtures contained 50 mM Tris at pH 7.8 (the final pH of the reaction was; 7.6), 10 mM DTT (dithiothreitol), 1 mM EDTA (ethylenediaminetetraacetic acid), 25 mM MgCl2, 15 mM H2 CO (formaldehyde) and 25 microM dUMP. When human TS was assayed, 100 micrograms/ml of BSA (bovine serum albumin) was present in the reactions. The range of THF (Tetrahydrofolate) was 5 to 150 microM (eight concentrations: 5, 6.6, 10, 13, 16, 25, 50 and 150 microM). A standard curve in the absence of inhibitor was run with each experiment. […] Charcoal was used to remove unreacted dUMP from the tritium release reaction mixtures, and the resultant water was counted to determine the extent of reaction.

human TS ("HTS") = human TS ("HTS") (Homo sapiens, UniProt P04818); assay: biochemical
human TS ("HTS"), sequence (P04818 whole entry): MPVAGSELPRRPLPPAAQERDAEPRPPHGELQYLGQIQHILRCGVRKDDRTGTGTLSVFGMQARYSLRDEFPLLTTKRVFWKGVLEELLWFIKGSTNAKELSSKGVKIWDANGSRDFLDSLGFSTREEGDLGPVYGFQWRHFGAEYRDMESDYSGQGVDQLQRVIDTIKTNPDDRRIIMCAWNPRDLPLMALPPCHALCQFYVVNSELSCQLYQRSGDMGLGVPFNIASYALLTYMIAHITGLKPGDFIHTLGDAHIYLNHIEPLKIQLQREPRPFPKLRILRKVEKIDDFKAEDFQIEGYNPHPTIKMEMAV
Method: as §1
as §2, with “The range of THF (Tetrahydrofolate) was 5 to 150 microM (eight concentrations: 5, 6.6, 10, 13, 16, 25, 50 and 150 microM).” left out

[3] = system: CCRF-CEM, a human lymphoblastic leukemia line of T-cell origin (ATCC CCL 119); assay: cells; assay type: cell-based; conditions: 120 h, read-out: IC50 (CRFCEM)
[4] = target: Escherichia Coli TS ("ETS") (Escherichia coli, UniProt P0A884); assay: Thymidylate synthase inhibition constant Ki, Escherichia Coli TS; assay type: biochemical
Escherichia Coli TS ("ETS"), sequence (P0A884 whole entry): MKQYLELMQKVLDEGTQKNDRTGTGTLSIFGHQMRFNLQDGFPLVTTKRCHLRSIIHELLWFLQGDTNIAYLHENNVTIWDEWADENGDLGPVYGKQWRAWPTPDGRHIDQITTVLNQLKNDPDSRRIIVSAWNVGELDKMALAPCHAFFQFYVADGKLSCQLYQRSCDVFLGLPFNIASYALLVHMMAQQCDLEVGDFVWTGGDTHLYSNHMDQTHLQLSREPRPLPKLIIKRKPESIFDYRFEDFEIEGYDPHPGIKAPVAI
Method: as §1, §2

| Structure (SMILES) | IC50 [1] [µM] | IC50 [2] [µM] | Ki (Candida TS ("CTS")) [µM] | Ki (human TS ("HTS")) [µM] | IC50 [3] [µM] | Ki [4] [µM] | Ki (Candida TS ("CTS"); read-out: Ki CTS, 25° C., against 5,10-methylene-tetrahydrofolate, 25 microM dUMP) [µM] | Ki ([4]; read-out: Ki ETS, 25° C., against 5,10-methylene-tetrahydrofolate, 25 microM dUMP) [µM] |
| --- | --- | --- | --- | --- | --- | --- | --- | --- |
| CCN(Cc1ccc(S(=O)(=O)N2CCNCC2)cc1)c1ccc2c3c(cccc13)C(=S)N2 [Compound 6, N-^6 -Ethyl-N^6 [(4-N,N-piperazinyl)sulfamoyl]benzyl-6-aminobenz[cd]indol-2(1H)-thione] | > 5 | 2.1 | 23 ± 15 | 3.4 ± 0.4 | 3.5 | 50 ± 9 |  |  |
| CCN(Cc1ccc(S(=O)(=O)c2ccccc2)cc1)c1ccc2c3c(cccc13)C(=O)N2 [Compound 8, N-[4-(phenylsulfonyl)benzyl]-N-ethyl-6-aminobenz[cd]indol-2(1H)-one] | > 3.33 | 3.05 | > 1 | 1.2 ± 0.4 | > 3.33 | > 1 |  |  |
| O=C1Nc2ccc(N(CCO)Cc3ccc(S(=O)(=O)N4CCNCC4)cc3)c3cccc1c23 [Compound 16, N-[4-(N,N-Piperazinylsulfamoyl)benzyl]-N-hydroxyethyl-6-aminobenz[cd]indol-2(1H)-one] | > 50 | 50 | 11 ± 7 | 0.87 ± 0.19 | 31 | 14 ± 7 |  |  |
| CCCN(Cc1ccc(S(=O)(=O)N2CCNCC2)cc1)c1ccc2c3c(cccc13)C(=O)N2 [Compound 19, N-[4-(N,N-Piperazinylsulfamoyl)benzyl]-N-propyl-6-aminobenz[cd]indol-2(1H)-one] | 5.4 | 2.9 | > 10 | 12 ± 4 | 3.1 | > 20 |  |  |
| CC(C)N(Cc1ccc(S(=O)(=O)N2CCNCC2)cc1)c1ccc2c3c(cccc13)C(=O)N2 [Compound 22, N-[4-(N,N-piperazinylsulfamoyl)benzyl]-N-isopropyl-6-aminobenz[cd]indol-2(1H)-one] | 5.9 | 3.9 | 43 ± 9 | 4.9 ± 0.7 | 6.8 | 23 ± 7 |  |  |
| CSCN(Cc1ccc(S(=O)(=O)c2ccccc2)cc1)c1ccc2c3c(cccc13)C(=O)N2 [Compound 24, N-[4-(Phenylsulfonyl)benzyl]-N-methylthiomethyl-6-aminobenz[cd]indol-2(1H)-one] | > 10 | 2.1 | > 1 | 3.9 ± 1.7 | 2.8 | > 1 |  |  |
| CN(Cc1ccc(S(=O)(=O)c2ccccc2)cc1)c1ccc2c3c(cccc13)C(=O)N2 [Compound 29] | > 5 |  |  |  |  |  |  |  |
| CN(Cc1ccc(CO)c2ccccc12)c1ccc2c3c(cccc13)C(=O)N2 [Compound 31, N-[4-Hydroxymethyl-1-naphthobenzyl]-N-methyl-6-aminobenz[cd]indol-2(1H)-one] | 4 | 0.8 |  | 10 ± 1 | 3 |  | > 2 | > 2 |
| CCN(Cc1ccc(S(=O)(=O)c2ccccc2)cc1)c1ccc2c3c(cccc13)C(N)=N2 [Compound 34] | 3 | 0.7 | 0.38 ± 0.11 | 0.075 ± 0.037 | 1.25 | 10 ± 6 |  |  |
| O=C1Nc2ccc(N(CCCO)Cc3ccc(S(=O)(=O)N4CCNCC4)cc3)c3cccc1c23 [Compound 40, N-[4-(N,N-Piperazinylsulfamoyl)benzyl]-N-hydroxypropyl-6-aminobenz[cd]indol-2-(1H)-one] | 30 | 21.5 | > 10 | 11 ± 5 | 15 | > 10 |  |  |
| CCN(Cc1ccc(S(=O)(=O)c2ccccc2)cc1)c1ccc2c3c(cccc13)CN2 [Compound 41, N-[4-(phenylsulfonyl)benzyl]-N-ethyl-6-amino-dihydrobenz[cd]indole] |  |  | > 10 | 12 ± 3 |  | > 5 |  |  |
| CN(Cc1ccc2cc(CO)ccc2c1)c1ccc2c3c(cccc13)C(=O)N2 [Compound 47, N-(6-Hydroxymethyl-2-naphthobenzyl)-N-methyl-6-aminobenz[cd]indol-2(1H)-one] | > 4 | 1.7 | > 10 | 20 ± 10 | > 4 | > 10 |  |  |

Reference: patent publication US5574039A, “Antiproliferative compounds having nitrogen-containing tricyclic ring systems and phenyl substituents” (Agouron Pharmaceuticals, Inc., priority 1994, dated 1996)
